The source of these data is patent US20030134859A1 (SANKYO COMPANY, LIMITED, priority 2000, published 2003).

Molecules are shown by their SMILES. Read-outs that look alike come from different tables or passages of the source.

The test system of assay [1] is Mouse preadipocyte strain 3T3-L1. As to the kind of experiment: Inhibition of differentiation as an indication of acetic acid uptake. It is filed as cell-based. As to conditions: Mus musculus, 3T3-L1, 0.1 μM test substance, control (0.01% dimethylsulfoxide) = 100%, read-out: Rate of Uptake (%) of [2-14C] acetic acid. The method, boiled down:
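Differentiation is indexed by 1 hr [2-14C]acetic acid incorporation, measured by scintillation counting and given as uptake relative to 0.01% DMSO control (100%). Mouse 3T3-L1 preadipocytes, pre-grown 10 days, received 0.1 μM test substance throughout a 4-day insulin/IBMX/dexamethasone induction, followed by 2 days' maintenance culture.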

For a further assay, the system named is TNF-α production. As to the kind of experiment: Inhibitory activity against cytokine (TNF-α) production in LPS-stimulated RAW264.7 cells. As to conditions: Mus musculus, RAW264.7, 15 h, 1 μM test compound, LPS 10 ng/mL. It is filed as cell-based, mouse. A digest of the protocol:
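Mouse RAW264.7 macrophages (5,000 cells/well) stimulated with 10 ng/mL LPS (final) and treated with test compound at 1 μM final for 15 h at 37 °C. Supernatant mouse TNF-α measured by ELISA; % inhibition = 100−(A−B)/(C−B)×100, using unstimulated and LPS-only controls.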

The next assay relates to lenses. As to the kind of experiment: Cataract assessment: opacity of cultured lenses exposed to hydrogen peroxide. As to conditions: 100 nM test compound with 5 mM hydrogen peroxide; 24 hr; clear: 0, slightly opaque: 1, moderately opaque: 2. Further details: species or system rat. How it is done:
The lenses were isolated from Sprague-Dawley rats (male, purchased from SLC Japan), and the lenses were pre-cultured in a medium (Medium-199: GIBCO BRL) for 3 hr and the lenses maintaining transparency were selected and used in the experiment. The crystalline lenses were cultured for 24 hr in the following 3 groups; 1) in Medium-199 (3 mL), 2) in Medium-199 (3 mL) containing hydrogen peroxide (final concentration: 5 mM) and 3) in Medium-199 (3 mL) containing the test compound (final concentration: 100 nM), DMSO (final concentration: 0.1% v/v) and hydrogen peroxide (final concentration: 5 mM). After finalising culturing, the opacity of the lens was scored based on the following criteria: clear: 0, slightly opaque: 1, moderately opaque: 2. Thus the improving effect of the test compound on cataracts was assessed.

The subject of another assay is Balb/c mice. In words: Prevention of concanavalin A liver injury. In kind it is in vivo, mouse. As to conditions: Mus musculus, po, 24 h, 10 mg/mL suspension at 10 mL/kg, 30 min prior to Con A, plasma 24 hr after Con A. How it is done: Five (5) Balb/c mice (female, 6-8 weeks old) per group were used. Liver injury was elicited in the mouse by injection of concanavalin A (Con A) dissolved in saline (2.0 mg/mL) into the tail vein at a volume of 10 mL/kg of the solution (Hepatology, 21, 190-198 (1995)).
The test compounds were suspended in distilled water containing 0.5% CMC, at a concentration of 10 mg/mL. This suspended solution was orally administered to the mouse at a volume of 10 mL/kg, 30 min prior to injection of Con A (group A).
Apart from this group, distilled water containing 0.5% CMC powder, instead of the test compound, was orally administered in the second group of mice (group B). In the 3rd group, nothing was given to the mice (group C).
Twenty four (24) hr after the injection of Con A, blood was collected from the abdominal aorta of the mice and the plasma was isolated while mixing with heparin. Activities of glutamic acid oxaloacetic acid transaminase (AST) and glutamic acid pyruvic acid transaminase (ALT) in the plasma were determined according to the methods described by Nagakawa et al. (J. Pharmacol. Exp. Ther., 264, 496-500 (1993)). From the values obtained inhibitory rates of the test compound against AST and ALT levels which had been increased by injection of Con A, were obtained based on the following equation.
Inhibitory Rate(%)={1−[(A−C)/(B−C)]}×100
A: The average level of AST or ALT in the group A
B: The average level of AST or ALT in the group B
C: The average level of AST or ALT in the group C

Where [2] appears, read: read-out: Preventing rate against liver injury, ALT (%).
The mark [3] stands for this setting: read-out: Preventing rate against liver injury, AST (%).

By inhibition is commonly meant the drop in the measured response relative to a control, in per cent. Low values mean a response near the control, high ones a response far below the control. As to `CC(C)(C)c1cc(-c2csc(NC(=O)c3cc([N+](=O)[O-])ccc3Cl)n2)cc(C(C)(C)C)c1O` [Example 139, N-[4-(3,5-di-tert-Butyl-4-hydroxyphenyl)thiazol-2-yl]-(2-chloro-5-nitrophenyl)carboxamide], in assay [1], the activity at 0.1 µM amounted to 59.2%. This compound also displayed an inhibition at 1 µM in the assay with TNF-α production of 42.7%. The “opacity of the lens (average score)” value with lenses stood at 1.0. The results for the inhibition in vivo at 10000 µg/mL, 100 mg/kg in the assay on Balb/c mice (setting [2]) and in the assay with Balb/c mice (setting [3]) were 54% and 48.4%, respectively.
Consider `CN(C)c1ccc(-c2ccc(NC(=O)c3cc([N+](=O)[O-])ccc3Cl)cc2)cc1` [Example 53, N-[4-(4-Dimethylaminophenyl)phenyl]-(2-chloro-5-nitrophenyl)carboxamide], for which the activity at 0.1 µM in assay [1] is 76.2%. Moreover, the inhibition at 1 µM with TNF-α production is 15.6%. The “opacity of the lens (average score)” value in the assay with lenses came to 1.0. Besides, the inhibition in vivo at 10000 µg/mL, 100 mg/kg in the assay on Balb/c mice (setting [2]) was found to be 22%; in the assay with Balb/c mice (setting [3]), 1.7%.
